Measured values reported in US20050020544A1, “Bicyclic CB2 cannabinoid receptor ligands” (priority 2002, published 2005).

Key:
human CB1 receptor = target: T1, human CB1 receptor (Homo sapiens, UniProt P21554); test: biochemical; assay type: binding; settings: displacement of [3H]CP55940, hCB1 HEK-293 membranes; read-out: CB1 IC50
T1 construct: purchased Perkin Elmer/NEN; host or cells: HEK-293 cells, stably transfected (membranes)
Experimental: (§1) In the present invention, binding affinity is represented by the IC50 value, namely the concentration of a test compound that will displace 50% of a radiolabeled agonist from the CB receptors. […] Preferably these ratios will be obtained for human CB1 and CB2 receptors. The selectivity toward CB2, denoted CB2/CB1 affinity, is calculated as the IC50 value obtained by the test compound for the displacement of the CB1 specific radioligand divided by the IC50 value obtained for the displacement of the CB2 specific radioligand, i.e. the IC50 CB1/IC50 CB2.
The CB1 binding assays were performed by testing the ability of the new compounds to displace [^3H]CP55940 from the CB1 receptor on membranes derived from hCB1 stably transfected HEK-293 cells (Perkin Elmer/NEN). Membranes were diluted in the assay buffer (50 mM Tris-HCl, 2.5 mM EDTA, 5 mM MgCl2, 1 mg/ml BSA, pH=7.4) to 500 μg protein/ml. 50 μl of diluted membranes (25 μg) were incubated with [^3H]CP55940 in the presence or absence of the bicyclic test compounds in a total volume of 0.5 ml. Tested compounds were dissolved in DMSO and diluted in the assay buffer to a final concentration of 0.1% solvent. Control samples were added with identical amount of vehicle. Non-specific binding was measured by the addition of 10 μM of WIN 55212-2. Following 1.5 hours incubation at 30° C. reactions were filtered through Whatman 934A/H filters (presoaked with 0.1% Polyethylenimine (PEI)).
(§2) Binding to CB1 is measured by competitive inhibition of [^3H]CP55940 in HEK-293 cells stably transfected with the human CB1 receptor gene. Binding to CB2 is measured by competitive inhibition of [^3H]WIN55212-2 in CHO cells stably transfected with the human CB2 receptor gene.

human CB2 receptor = human CB2 receptor (Homo sapiens, UniProt P34972); test: biochemical; assay type: binding; design: purchased Perkin Elmer/NEN; host or cells: CHO cells, stably transfected (membranes); settings: for CB2/CB1 affinity ratio: IC50 CB1/IC50 CB2; for IC50: displacement of [3H]WIN 55212-2, hCB2 CHO membranes
Experimental: as §1
The affinities of the novel bicyclic analogs to the CB2 receptor were determined by their ability to displace [^3H]WIN 55212-2 from the receptor in membranes derived from hCB2 stably transfected CHO cells (Perkin Elmer/NEN). Membranes were diluted in assay buffer (10 mM HEPES, 1 mM MgCl2, 1 mM EDTA, 0.3 mg/ml BSA, pH=7.4) to 500 μg protein/ml. 50 μl of diluted membranes (25 μg) were incubated with 0.8 nM of [^3H]WIN 55212-2 in the presence or absence of several concentrations of the bicyclic test compounds in a total volume of 1 ml. Tested compounds were dissolved and diluted as previously described for the hCB1 assay. Non-specific binding was measured by the addition of 10 μM CP 55940. Following 40 minutes incubation at 30° C. reactions were filtered as previously described. Filters for all binding assays were counted in a β-counter and log of analog concentration versus % of binding was plotted. IC50 values were extrapolated from this plot.
as §2

Male Sprague Dawley rats = test: Inflammatory pain: carrageenan paw edema in rats, thermal and mechanical stimuli; assay type: in vivo, rat; settings: for ΔForce (tactile stimulus) / ΔLT (thermal stimulus): 10 mg/kg i.p., three hours; for analgesic activity of the antagonists by themselves: 5 mg/kg i.p.
Experimental: Male Sprague Dawley rats (200 g average body weight, Harlan, Israel) are transiently sedated by placement on dry ice for the duration of the injections. […] Before induction of inflammatory pain and three hours after injection, the animals reactions to pain stimuli were tested in two systems. The first stimulus was thermal and assessed by the Plantar Test according to Hargreaves, using Ugo Basile Model 7370. The scale was set to an intensity of 50 arbitrary units. The latency time till the animal lift a paw as a reaction to the thermal stimulus was recorded for both the inflamed and non-inflamed hind paws. The second stimulus was mechanical (tactile) and assessed using a Dynamic Plantar Sesthesiomether (Ugo Basile Model 73400-002).
The results are measured as the differences between the two hind paws at time 0 and 3 hours both as ALT, for the latency time in the thermal part of the study, and as ΔForce, for the mechanical part of the study.

ICR male mice = test: Tail flick model for acute peripheral pain, i.p.; assay type: in vivo, mouse
Experimental: ICR male mice (20-30 g average body weight, Harlan, Israel) were injected i.p. at the volume dose of 5 ml/kg. Each treatment group contained at least 6 animals. Morphine HCl was used as positive control at the final dose of 5 mg/kg. Its vehicle, saline, was also included as control. The test compounds were dissolved in CREMOPHOR EL®:ethanol and diluted 1:20 in saline prior to injection, this second type of vehicle was also included as negative control. The final dose injected varied from 0.1 to 10 mg/kg. At predetermined time points after treatment injection, the animals were placed in the tail flick system (Socrel, model DS 20). Animals were gently held while their tails were located above the photoelectric cell. The tails were then illuminated (21V) at 2 cm from the distal tip and the latency time, measured in seconds, was recorded in duplicates. At the end of the study, the animals were euthanized by i.p. injection of 100 mg/kg sodium pentobarbitone.
Two parameters were used to analyze the results, the latency time and the % of animals showing analgesia. […] The results in both cases are expressed as mean±SE. The differences between the latency times or the % of animals showing analgesia among various treatment groups was analyzed by analysis of variance (ANOVA) followed by post-hoc Tukey's test (for latency) or Fisher's exact test (for % animals). A value of p<0.05 is considered to be statistically significant.

[1] = 10 mg/kg i.p., 330 minutes (five and a half hours)

T1 sequence (P21554 whole entry): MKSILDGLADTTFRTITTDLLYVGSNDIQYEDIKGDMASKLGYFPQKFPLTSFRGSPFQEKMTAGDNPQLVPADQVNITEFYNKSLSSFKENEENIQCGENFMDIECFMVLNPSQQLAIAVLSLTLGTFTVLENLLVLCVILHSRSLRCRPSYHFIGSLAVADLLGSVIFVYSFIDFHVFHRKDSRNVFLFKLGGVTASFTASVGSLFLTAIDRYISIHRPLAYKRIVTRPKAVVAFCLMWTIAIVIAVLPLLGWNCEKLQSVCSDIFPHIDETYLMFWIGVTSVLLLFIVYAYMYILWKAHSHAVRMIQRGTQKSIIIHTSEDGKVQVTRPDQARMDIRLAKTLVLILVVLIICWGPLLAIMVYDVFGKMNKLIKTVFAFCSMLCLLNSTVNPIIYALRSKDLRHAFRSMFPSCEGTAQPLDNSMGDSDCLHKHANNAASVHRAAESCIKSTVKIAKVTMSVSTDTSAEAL
human CB2 receptor, sequence (P34972 whole entry): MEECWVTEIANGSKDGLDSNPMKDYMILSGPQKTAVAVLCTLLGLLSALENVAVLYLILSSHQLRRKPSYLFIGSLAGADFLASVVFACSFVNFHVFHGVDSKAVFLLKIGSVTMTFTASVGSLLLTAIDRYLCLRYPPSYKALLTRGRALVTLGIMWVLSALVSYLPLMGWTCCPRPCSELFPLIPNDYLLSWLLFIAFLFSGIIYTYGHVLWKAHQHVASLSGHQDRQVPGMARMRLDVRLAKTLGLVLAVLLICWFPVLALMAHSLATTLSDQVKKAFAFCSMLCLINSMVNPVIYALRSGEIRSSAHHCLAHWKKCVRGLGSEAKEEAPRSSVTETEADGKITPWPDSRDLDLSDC

Row | Compound | IC50 (human CB1 receptor) [µM] | CB2/CB1 affinity ratio (human CB2 receptor) | IC50 (human CB2 receptor) [µM] | also measured
1 | CCC(C)(CC)c1cc(O)c(C2CC(=O)C3CC2C3(C)C)c(O)c1 (single isomer, unassigned; (-)) [Compound M, (−)-4-[4-(1-Ethyl-1-methyl-propyl)-2,6-dihydroxy-phenyl]-6,6-dimethyl-bicyclo[3.1.1]heptan-2-one] | 3.9 | 96 | 0.0408 | 
2 | C#CCCCCC(C)(C)c1cc(O)c([C@H]2CC(=O)[C@H]3C[C@@H]2C3(C)C)c(O)c1 [Compound F] | 0.013 | 38 | 0.000344 | 
3 | C#CCCCCC(C)(C)c1cc(O)c(C2C=C(C)C3CC2C3(C)C)c(O)c1 (single isomer, unassigned; (+)) [Compound E, (+)-5-(1,1-Dimethyl-hept-6-ynyl)-2-(4,6,6-trimethyl-bicyclo[3.1.1]hept-3-en-2-yl)-benzene-1,3-diol] | 0.026 | 33 | 0.000783 | 
4 | CC1=CC(c2c(O)cc(-c3ccc(C(C)(C)C)cc3)cc2O)C2CC1C2(C)C (centres unmarked) [Compound Q, 5-(1,1-Dimethyl-ethyl-phenyl)-2-(4,6,6-trimethyl-bicyclo[3.1.1]hept-3-en-2-yl)-benzene-1,3-diol] | 0.64 | 53 | 0.012 | 
5 | CC(C)(c1ccc(Cl)cc1)c1cc(O)c(C2CC(=O)C3CC2C3(C)C)c(O)c1 (single isomer, unassigned; (-)) [Compound J, (−)-4-{4-[1-(4-Chloro-phenyl)-1-methyl-ethyl]-2,6-dihydroxy-phenyl]-6,6-dimethyl-bicyclo[3.1.1]heptan-2-one] | 0.659 | 60 | 0.011 | 
6 | CC(C(=O)O)c1cccc(C(=O)c2ccccc2)c1 (centres unmarked) [Ketoprofen, reference compound] |  |  |  | ΔForce (tactile stimulus) (Male Sprague Dawley rats): 7 g; ΔLT (thermal stimulus) (Male Sprague Dawley rats): 0 s
7 | O=C(O)Cc1ccccc1Nc1c(Cl)cccc1Cl [Diclofenac, reference compound] |  |  |  | ΔForce (tactile stimulus) (Male Sprague Dawley rats): 2 g; ΔLT (thermal stimulus) (Male Sprague Dawley rats): 0 s
8 | CC(C)(CCc1ccccc1)c1cc(O)c(C2CC(=O)C3CC2C3(C)C)c(O)c1 (centres unmarked) [Compound G, 4-[4-(1,1-Dimethyl-3-phenyl-propyl)-2,6-dihydroxy-phenyl]-6,6-dimethyl-bicyclo[3.1.1]heptan-2-one] | 0.563 | 85 | 0.0066 | 
9 | Cc1c(C(=O)NN2CCCCC2)nn(-c2ccc(Cl)cc2Cl)c1-c1ccc(Cl)cc1 [SR141716A, reference compound] |  |  |  | analgesic activity of the antagonists by themselves (Male Sprague Dawley rats): no analgesic activity
10 | CCCCCCC(C)(C)c1cc(O)c(C2CC(=O)[C@H]3C[C@@H]2C3(C)C)c(OC(=O)/C=C/C(=O)O)c1 (single isomer, unassigned; (-)) [Compound Z, (−)-4-{4-[1,1-Dimethyl-heptyl]-2-fumarate-6-hydroxy-phenyl}-6,6-dimethyl-bicyclo[3.1.1]heptan-2-one] | 0.816 | 656 | 0.0012 | % animals showing increased analgesia (ICR male mice; [1]): about 60%; latency time (ICR male mice; [1]): 5.2 s; ΔForce (tactile stimulus) (Male Sprague Dawley rats): 2 g
11 | CCCCCCC(C)(C)c1cc(O)c([C@@H]2CC(=O)C3CC2C3(C)C)c(O)c1 (single isomer, unassigned; (+)) [(+) enantiomer of compound A, reference compound] |  | 10 |  | latency time (ICR male mice; 4 mg/kg i.p., thirty minutes): 2.4 s
12 | SR144528 [reference compound] |  |  |  | analgesic activity of the antagonists by themselves (Male Sprague Dawley rats): no analgesic activity
13 | CCCCC(C)(C)c1cc(O)c(C2C=C(COC(=O)C(C)(C)C)[C@H]3C[C@@H]2C3(C)C)c(O)c1 (some centres unmarked) [Compound AH, 2,2-dimethylpropionic Acid-4-{4-[1,1-Dimethyl-pentyl]-2,6-dihydroxy-phenyl}-6,6-dimethyl-bicyclo[3.1.1]hept-2-en-2-yl Methyl Ester] | 0.398 | 9.5 | 0.042 | 
